Values quoted from earlier work in patent publication US20020187120A1, “Method for treating gout and reducing serum uric acid” (GelTex Pharmaceutical, Inc., priority 2001, published 2002).

Settings: administered orally

Compound: COc1cc2c(c(OC)c1OC)-c1ccc(OC)c(=O)cc1[C@@H](NC(C)=O)CC2 [colchicine]
- people who cannot tolerate the drug because of side effects: 80%
